In patent US20170107179A1 (Tetraphase Pharmaceuticals, Inc., priority 2010, published 2017):
≈ marks a conversion by molar mass, not a printed value. Like-named read-outs stand apart in the source and are kept apart here.

Legend:
E. coli DH10B EC971 LacZ = test: MIC, E. coli DH10B recombinantly expressing control gene; conditions: E. coli DH10B, arabinose-induced, ampicillin in medium
[1] = system: E. coli DH10B EC1153 Tet(X); test: MIC, E. coli DH10B recombinantly expressing tetracycline-resistance gene; conditions: arabinose-induced, ampicillin in medium
E. coli DH10B EC969 TetM = test: as above; conditions: arabinose-induced, ampicillin in medium
E. coli DH10B EC970 TetK = test: as above; conditions: arabinose-induced, ampicillin in medium
[2] = system: E. coli DH10B EC1082 TetA; test: as above; conditions: arabinose-induced, ampicillin in medium
[3] = system: E. coli DH10B EC1083 TetB; test: as above; conditions: arabinose-induced, ampicillin in medium
Gram-positive pathogens = test: Broth microdilution MIC, respiratory/skin pathogens (Table 12); conditions: E. faecalis, VAN S (n = 53)
S. aureus Smith = test: Mouse systemic infection (septicemia) model, CD-1 mice; conditions: Staphylococcus aureus, in Mus musculus, 48 h; for responders at 3 mg/kg: iv, read-out: Percent survival at 48 hours, IV (3 mg/kg); for responders at 30 mg/kg: po, read-out: Percent survival at 48 hours, PO (30 mg/kg)
[4] = system: Gram-negative and Gram-positive organisms (clinical isolates); test: Broth microdilution MIC against clinical isolates (CLSI M7-A8), Table 9; assay type: cell-based
[5] = system: Legionella pneumophila, 70 isolates, serogroups 1-6; test: microbe, parasite or virus in culture; assay type: cell-based

SMILES	responders at 3 mg/kg (S. aureus Smith)	responders at 30 mg/kg (S. aureus Smith)	also measured
CO/N=C(\C(=O)N[C@@H]1C(=O)N2C(C(=O)O)=C(CSc3nc(=O)c(=O)[nH]n3C)CS[C@H]12)c1csc(N)n1 [Ceftriaxone]	–	–	MIC EC971 LacZ (E. coli DH10B EC971 LacZ): 0.125; MIC EC1153 Tet(X) [1]: 0.125; MIC EC969 TetM (E. coli DH10B EC969 TetM): 0.5; MIC EC970 TetK (E. coli DH10B EC970 TetK): 0.0625; MIC EC1082 TetA [2]: 0.0625; MIC EC1083 TetB [3]: 0.0625
CCC[C@@H]1C[C@@H](C(=O)N[C@@H]([C@H]2O[C@H](SC)[C@H](O)[C@@H](O)[C@H]2O)[C@H](C)Cl)N(C)C1 [Clindarnycin]	–	–	MIC50 (Gram-positive pathogens): > 2 µg/mL; MIC90 (Gram-positive pathogens): > 2 µg/mL
CC(C)N1Cc2c(O)c3c(c(F)c2C1)C[C@H]1C[C@H]2[C@H](N(C)C)C(O)=C(C(N)=O)C(=O)[C@@]2(O)C(O)=C1C3=O [Compound 143]	83%	100%	–
CN(C)[C@@H]1C(O)=C(C(N)=O)C(=O)[C@@]2(O)C(O)=C3C(=O)c4c(O)c5c(c(Cl)c4C[C@H]3C[C@@H]12)CN(C(C)(C)C)C5 [Compound 144]	50%	0%	–
CN(C)[C@@H]1C(O)=C(C(N)=O)C(=O)[C@@]2(O)C(O)=C3C(=O)c4c(O)c5c(c(F)c4C[C@H]3C[C@@H]12)CN(C(=O)CN1CC[C@H](F)C1)C5 [Compound 147]	83%	0%	–
CCCN1Cc2c(O)c3c(c(Cl)c2C1)C[C@H]1C[C@H]2[C@H](N(C)C)C(O)=C(C(N)=O)C(=O)[C@@]2(O)C(O)=C1C3=O [Compound 149]	17%	0%	–
CCC(C)(C)N1Cc2c(O)c3c(c(Cl)c2C1)C[C@H]1C[C@H]2[C@H](N(C)C)C(O)=C(C(N)=O)C(=O)[C@@]2(O)C(O)=C1C3=O [Compound 150]	0%	0%	–
CCCN1CCc2c(O)c3c(c(F)c2C1)C[C@H]1C[C@H]2[C@H](N(C)C)C(O)=C(C(N)=O)C(=O)[C@@]2(O)C(O)=C1C3=O [Compound 304]	0%	17%	–
CC(C)CN1CC(=O)Nc2c(O)c3c(c(F)c2C1)C[C@H]1C[C@H]2[C@H](N(C)C)C(O)=C(C(N)=O)C(=O)[C@@]2(O)C(O)=C1C3=O [Compound 400]	100%	0%	–
C[C@@H]1C(=O)Nc2c(O)c3c(c(F)c2CN1C)C[C@H]1C[C@H]2[C@H](N(C)C)C(O)=C(C(N)=O)C(=O)[C@@]2(O)C(O)=C1C3=O [Compound 406]	100%	40%	–
CC(C)C[C@@H]1CNc2c(O)c3c(c(F)c2CN1)C[C@H]1C[C@H]2[C@H](N(C)C)C(O)=C(C(N)=O)C(=O)[C@@]2(O)C(O)=C1C3=O [Compound 408]	100%	0%	–
CN(C)[C@@H]1C(O)=C(C(N)=O)C(=O)[C@@]2(O)C(O)=C3C(=O)c4c(O)c5c(c(F)c4C[C@H]3C[C@@H]12)CN1CCCC[C@@H]1C(=O)N5 [Compound 410]	100%	50%	–
CN(C)[C@@H]1C(O)=C(C(N)=O)C(=O)[C@@]2(O)C(O)=C3C(=O)c4c(O)c5c(c(F)c4C[C@H]3C[C@@H]12)CN1CCC[C@H]1C(=O)N5 [Compound 412]	100%	40%	–
CN1CC(=O)Nc2c(O)c3c(c(F)c2C1)C[C@H]1C[C@H]2[C@H](N(C)C)C(O)=C(C(N)=O)C(=O)[C@@]2(O)C(O)=C1C3=O [Compound 416]	100%	20%	–
CC(C)C[C@H]1NCc2c(F)c3c(c(O)c2NC1=O)C(=O)C1=C(O)[C@]2(O)C(=O)C(C(N)=O)=C(O)[C@@H](N(C)C)[C@@H]2C[C@@H]1C3 [Compound 419]	100%	40%	–
CC(C)C[C@@H]1C(=O)Nc2c(O)c3c(c(F)c2CN1C)C[C@H]1C[C@H]2[C@H](N(C)C)C(O)=C(C(N)=O)C(=O)[C@@]2(O)C(O)=C1C3=O [Compound 428]	50%	0%	–
CC[C@H]1OC(=O)[C@H](C)[C@@H](O[C@H]2C[C@@](C)(OC)[C@@H](O)[C@H](C)O2)[C@H](C)[C@@H](O[C@@H]2O[C@H](C)C[C@H](N(C)C)[C@H]2O)[C@](C)(O)C[C@@H](C)C(=O)[C@H](C)[C@@H](O)[C@]1(C)O [Erythromycin]	–	–	MIC50 [4]: 0.03 µg/mL (≈ 0.0409 µM); MIC90 [4]: > 0.5 µg/mL; MIC50 ([4]; Staphylococcus aureus): > 4 µg/mL; MIC90 ([4]; Staphylococcus aureus): > 4 µg/mL; MIC50 ([4]; Streptococcus anginosus): 0.03 µg/mL (≈ 0.0409 µM); MIC90 ([4]; Streptococcus anginosus): > 0.5 µg/mL; MIC50 ([4]; Streptococcus intermedius): 0.06 µg/mL (≈ 0.0818 µM); MIC90 ([4]; Streptococcus intermedius): > 0.5 µg/mL; MIC50 ([4]; Streptococcus mitis): > 0.5 µg/mL; MIC90 ([4]; Streptococcus mitis): > 0.5 µg/mL; MIC50 [5]: 0.25 µg/mL (≈ 0.341 µM); MIC90 [5]: 0.5 µg/mL (≈ 0.681 µM)
C[C@@H](O)[C@H]1C(=O)N2C(C(=O)O)=C(SCCN=CN)C[C@H]12 [Imipenern]	–	–	MIC50 (Gram-positive pathogens): 1 µg/mL (≈ 3.34 µM); MIC90 (Gram-positive pathogens): 1 µg/mL (≈ 3.34 µM)
